According to patent US20200172491A1, “SUBSTITUTED 5-(HET-)ARYLPYRAZOLAMIDES AND SALTS THEREOF AND THEIR USE AS HERBICIDAL ACTIVE SUBSTANCES” (Bayer CropScience Aktiengesellschaft, priority 2017, published 2020):

Key:
Type in all cases: in vivo
Amaranthus retroflexus [1] = test: Post-emergence herbicidal action; conditions: 320 g/ha, rated after about 3 weeks, 100% = plants have died, 0% = like control plants
Protocol: (§1) Seeds of monocotyledonous and dicotyledonous weeds and crop plants were placed in sandy loam in plastic or wood-fiber pots, covered with soil and cultivated in a greenhouse under controlled growth conditions. 2 to 3 weeks after sowing, the test plants were treated at the one-leaf stage. The compounds of the invention, formulated in the form of wettable powders (WP) or as emulsion concentrates (EC), were then sprayed onto the green parts of the plants as aqueous suspension or emulsion with addition of 0.5% additive at a water application rate of 600 l/ha (converted). After the test plants had been kept in the greenhouse under optimum growth conditions for about 3 weeks, the activity of the preparations was rated visually in comparison to untreated controls. For example, 100% activity=the plants have died, 0% activity=like control plants. Tables B1 to B6 below show the effects of selected compounds of the general formula (I) according to Table A1 at an application rate of 320 g/ha on various harmful plants, which were obtained by the aforementioned experimental procedure.

Stellaria media [2] = test: Post-emergence herbicidal action; conditions: 320 g/ha, rated after about 3 weeks, 100% = plants have died, 0% = like control plants
Protocol: as §1

Veronica persica [3] = test: Post-emergence herbicidal action; conditions: 320 g/ha, rated after about 3 weeks, 100% = plants have died, 0% = like control plants
Protocol: as §1

Viola tricolor [4] = test: Post-emergence herbicidal action; conditions: 320 g/ha, rated after about 3 weeks, 100% = plants have died, 0% = like control plants
Protocol: as §1

Amaranthus retroflexus [5] = test: Pre-emergence herbicidal action; conditions: 320 g/ha, scored after about 3 weeks, 100% = plants have died, 0% = like control plants
Source text: (§2) Seeds of monocotyledonous and dicotyledonous weed plants and crop plants were placed in plastic or wood-fiber pots and covered with soil. The compounds of the invention, formulated in the form of wettable powders (WP) or as emulsion concentrates (EC), were then applied to the surface of the covering soil as aqueous suspension or emulsion with addition of 0.5% additive at a water application rate equivalent to 600 l/ha. After the treatment, the pots were placed in a greenhouse and kept under good growth conditions for the test plants. After about 3 weeks, the effect of the preparations is scored visually in comparison with untreated controls as percentages. For example, 100% activity=the plants have died, 0% activity=like control plants. Tables B7 to B11 below show the effects of selected compounds of the general formula (I) according to Table A1 at an application rate of 320 g/ha on various harmful plants, which were obtained by the aforementioned experimental procedure.

Matricaria inodora [6] = test: Pre-emergence herbicidal action; conditions: 320 g/ha, scored after about 3 weeks, 100% = plants have died, 0% = like control plants
Source text: as §2

Stellaria media [7] = test: Pre-emergence herbicidal action; conditions: 320 g/ha, scored after about 3 weeks, 100% = plants have died, 0% = like control plants
Source text: as §2

Viola tricolor [8] = test: Pre-emergence herbicidal action; conditions: 320 g/ha, scored after about 3 weeks, 100% = plants have died, 0% = like control plants
Source text: as §2

Ipomoea purpurea = test: Post-emergence herbicidal action; conditions: 320 g/ha, rated after about 3 weeks, 100% = plants have died, 0% = like control plants
Protocol: as §1

Matricaria inodora [9] = test: Post-emergence herbicidal action; conditions: 320 g/ha, rated after about 3 weeks, 100% = plants have died, 0% = like control plants
Protocol: as §1

Veronica persica [10] = test: Pre-emergence herbicidal action; conditions: 320 g/ha, scored after about 3 weeks, 100% = plants have died, 0% = like control plants
Source text: as §2

SMILES	herbicidal activity on Amaranthus retroflexus (visual rating vs untreated controls) (Amaranthus retroflexus [1]) [%]	herbicidal activity on Stellaria media (visual rating vs untreated controls) (Stellaria media [2]) [%]	herbicidal activity on Veronica persica (visual rating vs untreated controls) (Veronica persica [3]) [%]	herbicidal activity on Viola tricolor (visual rating vs untreated controls) (Viola tricolor [4]) [%]	herbicidal activity on Amaranthus retroflexus (visual rating vs untreated controls) (Amaranthus retroflexus [5]) [%]	herbicidal activity on Matricaria inodora (visual rating vs untreated controls) (Matricaria inodora [6]) [%]	herbicidal activity on Stellaria media (visual rating vs untreated controls) (Stellaria media [7]) [%]	herbicidal activity on Viola tricolor (visual rating vs untreated controls) (Viola tricolor [8]) [%]	herbicidal activity on Ipomoea purpurea (visual rating vs untreated controls) (Ipomoea purpurea) [%]	herbicidal activity on Matricaria inodora (visual rating vs untreated controls) (Matricaria inodora [9]) [%]	herbicidal activity on Veronica persica (visual rating vs untreated controls) (Veronica persica [10]) [%]
Cc1nn(C)c(-c2cc(F)ccc2Cl)c1C(=O)Nc1cccc(Cl)c1 [I-004]	100	100	100	100	100	90	80	80	–	–	–
Cc1nn(C)c(-c2ccc(F)cc2Cl)c1C(=O)Nc1cc(F)ccc1F [I-008]	100	100	80	100	100	90	100	100	–	–	–
Cc1ccc(Cl)cc1NC(=O)c1c(C)nn(C)c1-c1ccc(F)cc1Cl [I-009]	100	100	–	100	100	100	100	–	100	100	100
Cc1nn(C)c(-c2ccc(F)cc2Cl)c1C(=O)Nc1c(Cl)cccc1Cl [I-013]	100	100	–	100	100	100	100	–	100	100	100
Cc1ccccc1NC(=O)c1c(C)nn(C)c1-c1ccc(F)cc1Cl [I-016]	100	100	–	100	100	100	100	–	100	100	80
Cc1nn(C)c(-c2ccc(F)cc2Cl)c1C(=O)Nc1cccc2c1C(C)OC2(C)C (centres unmarked) [I-019]	100	80	100	100	100	100	100	100	–	–	–
Cc1cccc(NC(=O)c2c(C)nn(C)c2-c2ccc(F)cc2Cl)c1 [I-022]	100	100	100	100	100	100	100	–	–	–	100
Cc1nn(C)c(-c2ccc(F)cc2Cl)c1C(=O)Nc1cccc(F)c1 [I-027]	100	100	–	100	100	100	100	–	100	100	100
Cc1cccc(Cl)c1NC(=O)c1c(C)nn(C)c1-c1ccc(F)cc1Cl [I-028]	100	100	–	100	100	100	100	–	100	100	100
Cc1nn(C)c(-c2ccc(F)cc2Cl)c1C(=O)Nc1ccccc1Cl [I-029]	100	100	100	100	–	100	100	–	–	–	–
Cc1cccc(NC(=O)c2c(C)nn(C)c2-c2ccc(F)cc2Cl)c1C [I-030]	100	100	–	100	100	100	100	–	100	90	100
